Values quoted from earlier work in patent publication US10987305B2, “Preparation of respirable zafirlukast particles” (Hovione Scientia Limited, priority 2015, dated 2021).

What was measured:
[1] = as disclosed in US 5,504,216 and related patents
[2] = as disclosed in US 5,504,216 and related patents; remark: listed apart in the source

| SMILES | Bioavailability [1] | Physical stability [2] |
| --- | --- | --- |
| COc1cc(C(=O)NS(=O)(=O)c2ccccc2C)ccc1Cc1cn(C)c2ccc(NC(=O)OC3CCCC3)cc12 [amorphous form, zafirlukast] | most bioavailable | less physically stable |
| COc1cc(C(=O)NS(=O)(=O)c2ccccc2C)ccc1Cc1cn(C)c2ccc(NC(=O)OC3CCCC3)cc12 [crystalline anhydrous form, zafirlukast] | relatively poor bioavailability | physically stable |
| COc1cc(C(=O)NS(=O)(=O)c2ccccc2C)ccc1Cc1cn(C)c2ccc(NC(=O)OC3CCCC3)cc12 [crystalline monohydrate form, zafirlukast] | relatively poor bioavailability | physically stable |
